Test system: ATF4 Nano Luciferase reporter (ATF4 translation / ISR pathway activation)
Assay: ATF4 Nano Luciferase reporter integrated stress response (ISR) assay in H4 ATF4-NLuc (clone 17) cells
Format: cell-based
Conditions: Homo sapiens, 0.5 h, compounds added for 30 minutes at 37° C., then 50 μm sodium arsenite for 6 additional hours, luminescence readout
Source text: Cellular stress leads to activation of the integrated stress response pathway through one of four eukaryotic initiation factor 2α kinases and halts global translation, while allowing for the translation of select transcripts like ATF4 (activating transcription factor 4) that are important for the response to cellular stress. During normal conditions, small open reading frames (ORFs) in the 5′ UTR of ATF4 occupy the ribosome and prevent translation of the coding sequence of ATF4. During stress conditions however, the ribosome scans past these upstream ORFs and preferentially begins translation at the coding sequence of ATF4. In this way, the translation, and thus protein level of ATF4 is a readout of ISR pathway activation. Thus, a fusion of the uORFs and the beginning of the coding sequence of ATF to a common cellular reporter like nano-luciferase allows for a sensitive and high-throughput readout of ISR pathway activity.
Certain compounds provided herein were tested in the following assay. The ATF4 Nano Luciferase reporter was constructed by fusing the human full length 5′ untranslated region (5′-UTR) and a small portion of the coding sequence of the ATF4 gene upstream of the Nano Luciferase (NLuc) coding sequence lacking it's start codon. Specifically, nucleotides +1 through +364 (relative to the transcriptional start site) of ATF4 transcript variant 2 (NCBI NM_182810.2) flanked 5′ by EcoRI and 3′ by BamHI restriction enzyme sites were synthesized and cloned into the EcoRI/BamHI cloning sites of pLVX-EF1a-IRES-Puro lentivirus vector (Clontech). Lentiviral particles were produced with Lenti-X single shots (VSV-G, Clontech) according to the manufacturer's instructions and used to transduce a human H4 neuroglioma cell line (ATCC HTB-148). H4 cells were selected with 1.25 μg/mL Puromycin, and clonal cell lines generated by limiting dilution. This cell line was utilized to generate an integrated stress response (ISR) assay to evaluate the activity of ISR pathway inhibitors via luminescence readout. The H4 ATF4-NLuc (clone 17) cell line was plated at a density of 15,000 or 2,500 cells in 96-well or 384-well respectively in DMEM+10% fetal bovine serum. 24-hours later test compounds diluted in dimethyl sulfoxide (DMSO) were added for 30 minutes at 37° C., followed by ISR pathway activation with […] sodium arsenite aqueous solution for 6 additional hours. Nano Glo luciferase reagent (N1150, Promega) was added according to manufacturer instructions and the luminescence signal (corresponding to the level of ATF4 translation and thus ISR pathway activation) was read with a standard plate reader with luminescence detection capabilities. In Table 2, the activity of certain compounds disclosed herein as tested in the assay above is provided.

| Compound | IC50 |
| --- | --- |
| O=C(COc1ccc(Cl)cc1)NC12CC(c3nnc(OCCOC(F)(F)F)o3)(C1)C2 [Example 1] | 62 nM |
| O=C(COc1ccc(C(F)(F)F)cc1)NC12CC(c3nnc(OCCOC(F)(F)F)o3)(C1)C2 [Example 2] | 4.9 nM |
| O=C(COc1ccc(C(F)(F)F)cc1)NC12CC(c3nnc(NCCOC(F)(F)F)o3)(C1)C2 [Example 4] | 36 nM |
| CN(CCOC(F)(F)F)c1nnc(C23CC(NC(=O)COc4ccc(C(F)(F)F)cc4)(C2)C3)o1 [Example 5] | 54 nM |
| O=C(COc1ccc(Br)cc1)NC12CC(c3nnc(OCCOCC(F)(F)F)o3)(C1)C2 [Example 7, 2-(4-bromophenoxy)-N-(3-(5-(2-(2,2,2-trifluoroethoxy)ethoxy)-1,3,4-oxadiazol-2-yl)bicyclo[1.1.1]pentan-1-yl)acetamide] | 16 nM |
| O=C(COc1ccc(C(F)(F)F)c(F)c1)NC12CC(c3nnc(OCCOCC(F)(F)F)o3)(C1)C2 [Example 9, 2-(3-fluoro-4-(trifluoromethyl)phenoxy)-N-(3-(5-(2-(2,2,2-trifluoroethoxy)ethoxy)-1,3,4-oxadiazol-2-yl)bicyclo[1.1.1]pentan-1-yl)acetamide] | 6.1 nM |

Next, values leading:

| IC50 | Compound |
| --- | --- |
| 16 nM | O=C(COc1ccc(Cl)cc1)NC12CC(c3nnc(OCCOCC(F)(F)F)o3)(C1)C2 [Example 3] |
| 21 nM | O=C(COc1ccc(C(F)(F)F)cc1)NC12CC(c3nnc(OCCOCC(F)(F)F)o3)(C1)C2 [Example 6, N-(3-(5-(2-(2,2,2-trifluoroethoxy)ethoxy)-1,3,4-oxadiazol-2-yl)bicyclo[1.1.1]pentan-1-yl)-2-(4-(trifluoromethyl)phenoxy)acetamide] |
| 23 nM | O=C(COc1ccc(Br)cc1)NC12CC(c3nnc(OCCOC(F)(F)F)o3)(C1)C2 [Example 8, 2-(4-bromophenoxy)-N-(3-(5-(2-(trifluoromethoxy)ethoxy)-1,3,4-oxadiazol-2-yl)bicyclo[1.1.1]pentan-1-yl)acetamide] |

Reference: US12091392B2, “Compounds, compositions and methods” (Denali Therapeutics Inc., priority 2019, dated 2024)
